Results on one compound are retold here after patent publication US20250228824A1, “COMPOSITIONS AND METHODS FOR INHIBITION OF ITO AS TREATMENT FOR THE J WAVE SYNDROMES AND HYPOTHERMIA” (Lankenau Institute for Medical Research, priority 2021, published 2025).

The assay has as its system coronary-perfused canine right ventricular (RV) wedge models of JWS, hypothermia. As to the kind of experiment: Coronary-perfused RV wedge model of hypothermia (NS5806 plus decreasing temperature). The following applies: NS5806 2 μM, 32.7±0.5° C., AR-787 10 μM, 20 min. As to the method: Transmural wedges were dissected from the base of the RV and LV. During the cannulation procedure, preparations were initially arterially perfused with cardioplegic solution. Next, the wedge preparations were placed in a tissue bath and perfused with a modified Krebs-Henseleit solution (K—H) bubbled with 95% O2/5% CO2 warmed to 37° C. The composition of K—H was (in mM): 118 NaCl, 4 KCl, 2 CaCl2, 1.2 MgSO4, 24 NaHCO3, 1.2 NaH2PO4, 2 Na Pyruvate and 10 D-Glucose. The perfusate was delivered at a constant pressure (45-50 mmHg). A transmural pseudo-ECG (ECG) was recorded using two Ag/AgCl half cells placed at ˜1 cm from the Epi (+) and Endo (−) surfaces along the same axis as the transmembrane action potential (AP) recordings. APs were simultaneously recorded from the immediate sub-Epi and M cell region (˜2-3 mm from the Endo surface) using floating glass microelectrodes. […] A detailed description of the arterially-perfused ventricular wedge preparation has been previously published.^5 ECG and AP signals were digitized and analyzed using Spike 2 for Windows (Cambridge Electronic Design, Cambridge, UK). […]
FIG. 9A-9C show the ability of AR-787 to suppress the ECG and arrhythmic manifestations in a model of hypothermia. […] The third grouping was recorded 10 minutes after lowering the temperature of the perfusate to 32.7±0.5° C. […] The fourth column was recorded 20 min after addition of AR-787 (10 μM).

On to `Cc1nc(-n2cccc2)sc1C(=O)N=c1[nH]c2ccccc2[nH]1` [AR-787, N-(1H-benzimidazol-2-yl)-4-methyl-2-pyrrol-1-yl-thiazole-5-carboxamide], for which the “hypothermia-induced AP notch, J wave, phase 2 reentry and pVT” value was “diminished the action potential (AP) notch and J wave”.
